Usually EC50 stands for the concentration at which the effect is half-maximal.

Drawing on patent US9951064B2, “Azaindazole compounds as inhibitors of T790M containing EGFR mutants” (Genentech, Inc., priority 2013, dated 2018), this text covers Ki and EC50 for 9 compounds.

In one assay the target is T1, EGFR T790M L858R (Homo sapiens, UniProt P00533, L858R/T790M).
T1 construct: purchased Life Technologies PV4879
Nature of the assay: EGFR T790M L858R biochemical assay (Caliper mobility shift). The following applies: 5 μM ATP; apparent Ki (Morrison fit) converted by Cheng-Prusoff, Km of ATP 1.3 μM. The method, then:
The exemplified compounds described herein were tested according to the assay below. The enzyme data reported in Tables 4-5 is generally a representative of multiple experiments.
Reactions proceed for 30 minutes at room temperature (22° C.) and are terminated with 80 mM 2,2′,2″,2′″-(ethane-1,2-diyldinitrilo)tetraacetic acid (EDTA). Product is detected using the Caliper mobility shift detection method where product and substrate are electrophoretically separated and measured.

The target of assay [1] is T2, phosphor-EGFR in H1975(L585R/T790M) mutant EGFR expressing cells (Homo sapiens, UniProt P00533, L858R/T790M).
T2 construct: host or cells: NCI-H1975
T2 sequence (P00533 25-1210 T790M/L858R): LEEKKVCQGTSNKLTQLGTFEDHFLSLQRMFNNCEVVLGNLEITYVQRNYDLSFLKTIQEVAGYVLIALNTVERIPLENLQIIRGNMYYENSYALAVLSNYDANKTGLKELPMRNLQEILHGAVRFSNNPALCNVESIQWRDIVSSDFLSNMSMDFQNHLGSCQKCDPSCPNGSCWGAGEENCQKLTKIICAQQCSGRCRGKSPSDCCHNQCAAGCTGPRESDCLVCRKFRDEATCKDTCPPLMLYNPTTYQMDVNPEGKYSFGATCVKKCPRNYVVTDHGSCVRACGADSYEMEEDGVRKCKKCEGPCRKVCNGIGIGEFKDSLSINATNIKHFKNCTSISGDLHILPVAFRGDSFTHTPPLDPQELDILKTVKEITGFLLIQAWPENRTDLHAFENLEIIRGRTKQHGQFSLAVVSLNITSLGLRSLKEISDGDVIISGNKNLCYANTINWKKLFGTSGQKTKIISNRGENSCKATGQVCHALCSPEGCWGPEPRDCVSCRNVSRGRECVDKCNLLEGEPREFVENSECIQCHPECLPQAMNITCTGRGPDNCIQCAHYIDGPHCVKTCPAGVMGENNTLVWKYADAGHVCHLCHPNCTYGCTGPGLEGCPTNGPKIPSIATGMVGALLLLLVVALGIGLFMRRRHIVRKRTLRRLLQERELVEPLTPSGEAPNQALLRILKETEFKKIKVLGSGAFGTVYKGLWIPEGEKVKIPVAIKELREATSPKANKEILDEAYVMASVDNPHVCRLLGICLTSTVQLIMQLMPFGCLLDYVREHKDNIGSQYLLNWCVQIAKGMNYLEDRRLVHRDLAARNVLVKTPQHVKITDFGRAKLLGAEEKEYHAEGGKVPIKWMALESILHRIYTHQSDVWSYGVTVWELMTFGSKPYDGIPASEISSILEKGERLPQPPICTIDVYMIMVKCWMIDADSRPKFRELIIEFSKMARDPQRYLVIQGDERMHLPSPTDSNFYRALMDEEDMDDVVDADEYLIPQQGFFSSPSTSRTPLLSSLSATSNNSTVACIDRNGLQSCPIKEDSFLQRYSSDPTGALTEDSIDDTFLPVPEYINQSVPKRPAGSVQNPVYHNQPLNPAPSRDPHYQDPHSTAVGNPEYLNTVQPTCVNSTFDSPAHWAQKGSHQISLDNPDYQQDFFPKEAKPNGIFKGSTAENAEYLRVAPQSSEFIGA
The experiment in a line: H1975 pEGFR MSD cellular assay. The settings on record: NCI-H1975 cells, serum starved, 1 hour compound incubation, pEGFR Tyr1068 MSD; read-out: HI975 pEGFR EC50. The class given is cell-based. The method, then:
H1975 pEGFR MSD Cellular Assays
These assays are intended for determining cellular. […] (Meso Scale Discovery Catalog# N31CB-1).
NCI-H1975 (ATCC Catalog# CRL-5908) cells are maintained in medium containing RPMI 1640, 10% FBS, 4 mM L-Glutamine, 1% Penicillin-Streptomycin, and 4.5 g/L Glucose. All cell culture reagents were purchased from Invitrogen/Gibco. Cells are cultured at 37° C. at 5% CO2 and split as recommended by ATCC.
Cell Plating and Serum Starvation:
H1975 cells are harvested and plated into sterile cell culture treated 384 well plates (Greiner catalog #781091) at a density of 30,000 cells/well in 50 ul culture medium and placed in a 37° C. at 5% CO2 incubator for six hours. After six hours, culture medium is aspirated and replaced with serum-free culture medium. Cells are then incubated with the serum-free medium overnight at 37° C. and 5% CO2.
The following day, test compounds are serially diluted in dimethyl sulfoxide (DMSO) and added to cells in serum free medium (final DMSO concentration 0.5%). Assay plates are then incubated for 1 hour at 37° C. and 5% CO2. Following 1 hour of compound incubation cells are then lysed and processed as per the MSD pEGFR assay kit protocol. Cell lysates are added to assay plates pre-coated with antibodies against phosphorylated EGFR. Phosphorylated EGFR in samples are allowed to bind to the capture antibodies overnight at 4° C. The detection antibody (anti-total EGFR, labeled with an electrochemiluminescent SULFO-TAG) is added to the bound lysate and incubated for 1 hour at room temperature. The MSD Read Buffer is added such that when a voltage is applied to the plate electrodes, the labels bound to the electrode surface emit light. The MSD Sector Instrument measures the intensity of the light, and quantitatively measures the amount of phosphorylated-EGFR in the sample. Percent inhibition of EGFR phosphorylation by varying concentrations of test compounds is calculated relative to untreated controls. EC50 values are calculated using the 4 parameter logistic nonlinear regression dose-response model.

The test system of assay [2] is H1975 (EGFR T790M/L858R) cell proliferation. The experiment in a line: H1975 proliferation assay (Cell Titer-Glo). It counts as cell-based. The following applies: Homo sapiens, NCI-H1975, 72 h, NCI-H1975 cells, 72 hour incubation, read-out: H1975 antiproliferative EC50. The method, then: H1975 Proliferation Assays
All cell culture reagents were purchased from Invitrogen/Gibco. Cells are cultured at 37° C. at 5% CO2 and split as recommended by ATCC.
On the technique in general: In ATP-based viability assays light output follows the ATP content of the culture.

T1 sequence (P00533 25-1210 T790M/L858R): as above

`CC(C)n1nc(N2CCOCC2)c2cnc(Nc3ccnc(-c4cnn(S(=O)(=O)C5CC5)c4)n3)cc21` [Example 51, N-(2-(1-(cyclopropylsulfonyl)-1H-pyrazol-4-yl)pyrimidin-4-yl)-1-isopropyl-3-morpholino-1H-pyrazolo[4,3-c]pyridin-6-amine]: at EGFR T790M L858R, the Ki worked out at 1.9 nM. Further, the EC50 was determined as 74.4 nM in assay [1] and 266 nM in assay [2].

Consider `CC(C)n1ncc2cnc(Nc3ccnc(N4CCC(O)C(C)(C)C4)n3)cc21` (stereo not drawn) [Example 33, 1-(4-((1-isopropyl-1H-pyrazolo[4,3-c]pyridin-6-yl)amino)pyrimidin-2-yl)-3,3-dimethylpiperidin-4-ol], for which the Ki on EGFR T790M L858R came to 7.5 nM. Besides, the values for the 50% effective concentration (EC50) in assay [1] and in assay [2] were 1020 nM and 110 nM, respectively.

With `CC(C)n1nc(N2CCOCC2)c2cnc(Nc3ccnc(N4CCC(O)C(F)C4)n3)cc21` (racemic) [Example 20, (±)-cis-3-Fluoro-1-[4-(1-isopropyl-3-morpholin-4-yl-1H-pyrazolo[4,3-c]pyridin-6-ylamino)pyrimidin-2-yl]piperidin-4-ol], at EGFR T790M L858R, the Ki is 2.5 nM. Further, the concentration giving a half-maximal response (EC50) in assay [1] amounted to 135 nM; in assay [2] it was 1080 nM.

Turning to `CC(C)n1nc(N2CC(O)C(F)C2)c2cnc(Nc3ccnc(-c4cnn(S(=O)(=O)C5CC5)c4)n3)cc21` (stereo not drawn) [Example 42, 1-(6-(2-(1-(cyclopropylsulfonyl)-1H-pyrazol-4-yl)pyrimidin-4-ylamino)-1-isopropyl-1H-pyrazolo[4,3-c]pyridin-3-yl)-trans-4-fluoropyrrolidin-3-ol], at EGFR T790M L858R, the Ki is 1.1 nM. The 50% effective concentration (EC50) in assay [1] came out at 12.5 nM; in assay [2], 240 nM.

Consider `CC(C)n1nc(NC2CCOCC2)c2cnc(Nc3ccnc(-c4cnn(S(=O)(=O)C5CC5)c4)n3)cc21` [Example 52, N^6-(2-(1-(cyclopropylsulfonyl)-1H-pyrazol-4-yl)pyrimidin-4-yl)-1-isopropyl-N^3-(tetrahydro-2H-pyran-4-yl)-1H-pyrazolo[4,3-c]pyridine-3,6-diamine], for which the Ki at EGFR T790M L858R came to 2.2 nM. Moreover, the half-maximal effective concentration (EC50) in assay [1] was determined as 90.1 nM; in assay [2], 1110 nM.

Turning to `CC(C)n1ncc2cnc(Nc3ccnc(-c4cnn(CC5CC5)c4)n3)cc21` [Example 32, N-(2-(1-(cyclopropylmethyl)-1H-pyrazol-4-yl)pyrimidin-4-yl)-1-isopropyl-1H-pyrazolo[4,3-c]pyridin-6-amine], the Ki at EGFR T790M L858R was 35.6 nM. Besides, the figures for the EC50 in assay [1] and in assay [2] were 3830 nM and 498 nM, respectively.

With `CC(C)n1nc(C2CCOC2)c2cnc(Nc3ccnc(-c4cnn(S(=O)(=O)C5CC5)c4)n3)cc21` (stereo not drawn) [Example 19, N-(2-(1-(Cyclopropylsulfonyl)-1H-pyrazol-4-yl)pyrimidin-4-yl)-1-isopropyl-3-(tetrahydrofuran-3-yl)-1H-pyrazolo[4,3-c] pyridin-6-amine], the Ki on EGFR T790M L858R was found to be 4.9 nM. For the same compound, the figures for the half-maximal effective concentration (EC50) in assay [1] and in assay [2] were 723 nM and 1460 nM, respectively.

Consider `CC(C)n1nc(N2CC(C(N)=O)C2)c2cnc(Nc3ccnc(-c4cnn(S(=O)(=O)C5CC5)c4)n3)cc21` [Example 55, 1-(6-(2-(1-(cyclopropylsulfonyl)-1H-pyrazol-4-yl)pyrimidin-4-ylamino)-1-isopropyl-1H-pyrazolo[4,3-c]pyridin-3-yl)azetidine-3-carboxamide], for which, at EGFR T790M L858R, the Ki is under 0.6 nM. In addition, the results for the EC50 in assay [1] and in assay [2] were 144 nM and 938 nM, respectively.

Consider `CC(C)Nc1nn(C(C)C)c2cc(Nc3ccnc(-c4cnn(S(=O)(=O)C5CC5)c4)n3)ncc12` [Example 46, N^6-(2-(1-(cyclopropylsulfonyl)-1H-pyrazol-4-yl)pyrimidin-4-yl)-N^3,1-diisopropyl-1H-pyrazolo[4,3-c]pyridine-3,6-diamine], for which the Ki on EGFR T790M L858R came out at 2.7 nM. Further, the EC50 in assay [1] came to 153 nM; in assay [2], 951 nM.
